Source: patent US20170105953A1, “METHOD FOR SUPPRESSING DIABETES AND/OR HEPATIC LIPIDS USING TORMENTIC ACID” (priority 2015, published 2017)

How the values were obtained:
[1] = blood parameters in high-fat diet-fed mice; format: in vivo; details: HF diet-fed C57BL/6J mice; for blood glucose / circulating TG (triglyceride) levels: week 12; for circulating TG (triglyceride) levels: vs HF group; for Blood profiles: FFA (plasma free fatty acid) / Blood profiles: Insulin / Blood profiles: Leptin / Blood profiles: TC (total cholesterol): mean ± SE, n=9
Procedure: For part 2, C57BL/6J mice (4 weeks old) were obtained from the National Laboratory Animal Breeding and Research Center. The mice were divided randomly into two groups after 7 days acclimation. […] The compositions of the experimental diets are given in previous studies. After 8 weeks, the high-fat treated mice were randomly subdivided into four groups (n=9) including PTA1 (0.06 g/kg/day), PTA2 (0.12 g/kg/day) or rosiglitazone (Rosi; 1% methylcellulose, 10 mg/kg body weight) (GlaxoSmithKline) or vehicle and treated by oral gavage one time per day from the 9th to 12th weeks, while the mice were still on the high-fat diet, whereas the CON and high-fat control (HF) mice were treated with vehicle only. At the end, food was withheld from the animals (from 10 p.m. to 10 a.m.). The next day, the mice were sacrificed for blood and tissue collection and analysis. Livers, skeletal muscles, and white adipose tissues (WATs) (including epididymal, mesenteric, and retroperitoneal WAT) were weighed and excised, followed by immediate freezing, and kept at −80° C. for target gene analysis. Heparin (30 units/mL) (Sigma) was added to blood samples. Plasma samples were collected within 30 min by centrifugation at 1600 g for 15 min at 4° C. Plasma was obtained for insulin and leptin assay.
Blood samples (0.8 mL) were collected from the retro-orbital sinus of fasted mice, and the glucose level was analyzed by the glucose oxidase method (model 1500; Sidekick Glucose Analyzer; YSI Inc., Yellow Springs, Ohio, USA). Plasma triglycerides (TG), total cholesterol (TC), and free fatty acids (FFA) were measured using commercial assay kits according to the manufacturer's directions (Triglycerides-E test, Cholesterol-E test, and FFA-C test, Wako Pure Chemical, Osaka, Japan). The levels of insulin and leptin in blood were analyzed by ELISA using a commercial assay kit according to the manufacturer's directions (mouse insulin ELISA kit, Sibayagi, Gunma, Japan; and mouse leptin ELISA kit, Morinaga, Yokohama, Japan).

[2] = test system: 11β-HSD1; test: semiquantitative RT-PCR, liver 11β-HSD1 mRNA; format: in vivo, C57BL/6J mice; details: HF diet-fed mice, normalized to GAPDH, vs HF group
From the text: (§1) For part 2, C57BL/6J mice (4 weeks old) were obtained from the National Laboratory Animal Breeding and Research Center. The mice were divided randomly into two groups after 7 days acclimation. The control (CON) group (n=9) was fed a low-fat diet (diet 12450B, Research Diets, Inc., New Brunswick, N.J., USA), whereas the experimental group was fed a 45% high-fat diet (diet 12451, Research Diets, Inc.) for 12 weeks. The compositions of the experimental diets are given in previous studies. […]
(§2) Total RNA from the liver tissue was isolated with a Trizol reagent (Molecular Research Center, Inc., Cincinnati, Ohio, USA) according to the manufacturer's directions. The integrity of the extracted total RNA was examined by 2% agarose gel electrophoresis, and the RNA concentration was determined by ultraviolet (UV) light absorbency at 260 and 280 nm (spectrophotometer U-2800A, Hitachi). […] The relative density of the band was evaluated using AlphaDigiDoc 1201 software (Alpha Innotech Co., San Leandro, Calif., USA). All of the measured PCR products were normalized to the amount of cDNA of GAPDH in each sample. […]

[3] = test system: epididymal WAT and liver tissue; test: histopathology of epididymal WAT and liver tissue; format: in vivo; details: HF diet-fed C57BL/6J mice; for hepatocellular ballooning mean score: grade 0 none, 1 a few cells, 2 many cells
From the text: For part 2, C57BL/6J mice (4 weeks old) were obtained from the National Laboratory Animal Breeding and Research Center. The mice were divided randomly into two groups after 7 days acclimation. The control (CON) group (n=9) was fed a low-fat diet (diet 12450B, Research Diets, Inc., New Brunswick, N.J., USA), whereas the experimental group was fed a 45% high-fat diet (diet 12451, Research Diets, Inc.) for 12 weeks. The compositions of the experimental diets are given in previous studies. After 8 weeks, the high-fat treated mice were randomly subdivided into four groups (n=9) including PTA1 (0.06 g/kg/day), PTA2 (0.12 g/kg/day) or rosiglitazone (Rosi; 1% methylcellulose, 10 mg/kg body weight) (GlaxoSmithKline) or vehicle and treated by oral gavage one time per day from the 9th to 12th weeks, while the mice were still on the high-fat diet, whereas the CON and high-fat control (HF) mice were treated with vehicle only. At the end, food was withheld from the animals (from 10 p.m. to 10 a.m.). The next day, the mice were sacrificed for blood and tissue collection and analysis. Livers, skeletal muscles, and white adipose tissues (WATs) (including epididymal, mesenteric, and retroperitoneal WAT) were weighed and excised, followed by immediate freezing, and kept at −80° C. for target gene analysis. Heparin (30 units/mL) (Sigma) was added to blood samples. Plasma samples were collected within 30 min by centrifugation at 1600 g for 15 min at 4° C. Plasma was obtained for insulin and leptin assay.
Small pieces of epididymal WAT and liver tissue were fixed with formalin (200 g/kg) neutral buffered solution and embedded in paraffin. Sections (8 μm) were cut and stained with hematoxylin and eosin. For microscopic examination, a microscope (Leica, DM2500) was used, and the images were taken using a Leica Digital camera (DFC-425-C).

[4] = test system: PPARα; test: semiquantitative RT-PCR, liver PPARα mRNA; format: in vivo, C57BL/6J mice; details: HF diet-fed mice, normalized to GAPDH
From the text: as §1, §2

[5] = test system: G6 Pase; test: semiquantitative RT-PCR, liver G6 Pase mRNA; format: in vivo, C57BL/6J mice; details: HF diet-fed mice, normalized to GAPDH, vs HF group
From the text: as §1, §2

[6] = PTA1 0.06 g/kg/day oral gavage 4 weeks
[7] = PTA2 0.12 g/kg/day oral gavage 4 weeks

C[C@@H]1CC[C@]2(C(=O)O)CC[C@]3(C)C(=CC[C@@H]4[C@@]5(C)C[C@@H](O)[C@H](O)C(C)(C)[C@@H]5CC[C@]43C)[C@@H]2[C@]1(C)O [PTA, tormentic acid]
blood glucose [1, 6]: 96.3 mg/dL
circulating TG (triglyceride) levels [1, 6]: decreased
Blood profiles: FFA (plasma free fatty acid) [1, 6]: 2.15 ± 0.35 mequiv/L
Blood profiles: Insulin [1, 6]: 101.7 ± 15.2 μU/mL
Blood profiles: Leptin [1, 6]: 2.35 ± 0.092 ng/mL
Blood profiles: TC (total cholesterol) [1, 6]: 167.0 ± 6.1 mg/dL
blood glucose [1, 7]: 94.8 mg/dL
circulating TG (triglyceride) levels [1, 7]: decreased
Blood profiles: FFA (plasma free fatty acid) [1, 7]: 1.88 ± 0.29 mequiv/L
Blood profiles: Insulin [1, 7]: 73.9 ± 11.8 μU/mL
Blood profiles: Leptin [1, 7]: 1.78 ± 0.094 ng/mL
Blood profiles: TC (total cholesterol) [1, 7]: 153.7 ± 6.9 mg/dL
mRNA level of 11β-HSD1 in liver ([2]; PTA1 0.06 g/kg/day 4 weeks): significantly decrease
mRNA level of 11β-HSD1 in liver ([2]; PTA2 0.12 g/kg/day 4 weeks): significantly decrease
average area of adipocytes (epididymal WAT) [3, 6]: 2380.9±108.6 μm2
hepatocellular ballooning mean score [3, 6]: 1.0±0.2
average area of adipocytes (epididymal WAT) [3, 7]: 2243.2±100.9 μm^2
hepatocellular ballooning mean score [3, 7]: 0.7±0.2
mRNA levels of PPARα in liver ([4]; PTA1 0.06 g/kg/day 4 weeks): increased
mRNA levels of PPARα in liver ([4]; PTA2 0.12 g/kg/day 4 weeks): increased
mRNA level of G6 Pase in liver ([5]; PTA1 0.06 g/kg/day 4 weeks): significantly decrease
mRNA level of G6 Pase in liver ([5]; PTA2 0.12 g/kg/day 4 weeks): significantly decrease
